The test system of one assay is OVCAR-3 cells. The assay is described as follows: Inhibition of OVCAR-3 cell proliferation (CellTiter-Glo cell viability). It counts as cell-based. The settings on record: Homo sapiens; OVCAR-3 cells (TP53 R248Q mutation), 72 hours culture with compound; read-out: IC50. As for the experimental part:
Influences of the compounds of the present invention on OVCAR-3 cell proliferation were determined by the following method. OVCAR-3 cells (containing TP53 R248Q mutation) were purchased from the Cell Bank of Shanghai Institute of Biochemistry and Cell Biology, Chinese Academy of Sciences, and cultured in an RPMI 1640 culture medium containing 10% fetal bovine serum, 100 U penicillin and 100 µg/mL streptomycin. A cell viability was determined by a CellTiter-Glo® Luminescent Cell Viability Assay kit (Promega, article number G7573).
(§1) An experimental method was operated according to steps in the instruction of the kit, which was briefly described as follows: a test compound was dissolved in DMSO first to prepare a 10 mM stock solution, then the stock solution was diluted with the culture medium to prepare a test sample, and a final concentration of the compound was in a range of 1000 nM-0.015 nM. Cells in a logarithmic growth phase were inoculated into a 96-well cell culture plate at a density of 1000 cells per well, cultured in a 5% CO2 incubator at 37°C overnight, and then the test compound was added to continuously culture for 72 hours. After the culture was ended, 50 uL of CellTiter-Glo detection solution was added to each well , shaken for 5 minutes, and then allowed to stand for 10 minutes, and subsequently, a luminance value of each well of the sample was read by a microplate reader in a Luminescence mode. By comparing with the numerical value of a control group (0.3% DMSO), a percentage inhibition rate of the compound at each concentration point was calculated, and then nonlinear regression analysis was carried out based on concentration logarithm-inhibition rate of the compound in GraphPad Prism 5 software, so as to obtain an IC50 value of the compound for inhibiting the cell proliferation, which was as shown in Table 1. Table 1 IC50 data of the compounds of the present invention for inhibiting OVCAR-3 cell proliferation

Another assay has as its target T1, recombinant human KIF18A (Homo sapiens, UniProt Q8NI77).
T1 construct: purchased GenScript
Put plainly: Inhibition of KIF18A enzyme activity (ADP-Glo assay). Type of assay: biochemical. To be noted: recombinant human KIF18A 100 nM, ATP 60 µM, tubulin, paclitaxel; read-out: IC50. The protocol: Inhibition degrees of the compounds of the present invention on recombinant human KIF18A enzyme activity in vitro were determined by the following method. An ADP-Glo™ Kinase Assay kit (article number V9102) from Promega Company was used in this method. Detailed experimental operation referred to the instruction of the kit.
An experimental process was briefly described as follows: a test compound was dissolved in DMSO first to prepare a stock solution, then the stock solution was gradiently diluted with a reaction buffer A ([…], 0.01% Pluronic F-68), and a final concentration of the test compound in the reaction system was in a range of 10000 nM-0.15 nM; and a KIF18A protein and ATP working solution was prepared by using a reaction buffer B (15 mM Tris, pH 7.5, 10 mM MgCl2, 0.01% Pluronic F-68, 37.5 µg/ml tubulin, 1.25 µM paclitaxel). The reaction was carried out in a 384-well microplate. The test compound and the recombinant human KIF18A protein (final concentration of 100 nM, entrusted to GenScript for expression) were added into the wells and incubated at room temperature for 20 minutes, and subsequently, an ATP solution (component V915A from the ADP-Glo™ Kinase Assay kit, final concentration of 60 µM) was added to the reaction solution and the system was incubated at room temperature for 20 minutes. Subsequently, 5 µL of ADP-Glo Reagent was added to the reaction systemand the system was incubated at room temperature for 50 minutes. Then, 10 µL of Kinase Detection Reagent was added to the reaction system and the system was incubated at room temperature for 30 minutes. After the incubation was ended, a chemiluminiscence intensity value of each well was determined by a microplate reader in a Luminescence mode.
(In ADP-Glo the light output rises with the ADP produced.)

A further assay relates to HT-29 cells. The assay is described as follows: Inhibition of HT-29 cell proliferation (CellTiter-Glo cell viability). Type of assay: cell-based. To be noted: Homo sapiens; HT-29 cells (TP53 R273H mutation), 120 hours culture with compound; read-out: IC50. As for the experimental part: Influences of the compounds of the present invention on HT-29 cell proliferation were determined by the following method. HT-29 cells (containing TP53 R273H mutation) were purchased from the Cell Bank of Shanghai Institute of Biochemistry and Cell Biology, Chinese Academy of Sciences, and cultured in a McCOY's 5A culture medium containing 10% fetal bovine serum, 100 U penicillin and 100 µg/mL streptomycin. A cell viability was determined by a CellTiter-Glo® Luminescent Cell Viability Assay kit (Promega, article number G7573).
as §1, with “for 120” for “for 72”, “each well,” for “each well ,”, “Table 2.” for “Table 1.”, “Table 2” for “Table 1”, “inhibiting HT-29” for “inhibiting OVCAR-3”

T1 sequence (Q8NI77 whole entry): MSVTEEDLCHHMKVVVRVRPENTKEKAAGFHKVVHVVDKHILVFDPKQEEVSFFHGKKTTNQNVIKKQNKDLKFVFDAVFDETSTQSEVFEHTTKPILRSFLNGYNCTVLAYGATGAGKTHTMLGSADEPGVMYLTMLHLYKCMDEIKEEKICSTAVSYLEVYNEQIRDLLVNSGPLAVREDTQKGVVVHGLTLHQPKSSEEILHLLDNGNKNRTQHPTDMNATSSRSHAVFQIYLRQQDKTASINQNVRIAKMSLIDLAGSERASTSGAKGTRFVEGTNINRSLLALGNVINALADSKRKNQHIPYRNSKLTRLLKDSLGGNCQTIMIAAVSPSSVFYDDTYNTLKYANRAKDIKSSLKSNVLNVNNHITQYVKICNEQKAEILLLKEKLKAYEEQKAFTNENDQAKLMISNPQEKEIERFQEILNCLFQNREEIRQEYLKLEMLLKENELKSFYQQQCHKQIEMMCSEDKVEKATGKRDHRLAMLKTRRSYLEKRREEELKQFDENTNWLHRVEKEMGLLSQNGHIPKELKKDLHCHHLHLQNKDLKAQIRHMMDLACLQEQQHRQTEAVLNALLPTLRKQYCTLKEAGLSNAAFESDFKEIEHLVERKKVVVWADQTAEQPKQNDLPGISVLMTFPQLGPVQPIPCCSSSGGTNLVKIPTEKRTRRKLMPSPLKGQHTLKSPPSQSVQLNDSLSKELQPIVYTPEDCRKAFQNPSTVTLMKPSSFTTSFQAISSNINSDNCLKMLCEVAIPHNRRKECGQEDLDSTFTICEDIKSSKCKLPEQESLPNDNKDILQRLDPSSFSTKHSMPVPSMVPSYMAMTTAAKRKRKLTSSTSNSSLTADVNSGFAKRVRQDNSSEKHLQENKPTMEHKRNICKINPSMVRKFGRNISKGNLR
T1 sequence (P68363 whole entry partner): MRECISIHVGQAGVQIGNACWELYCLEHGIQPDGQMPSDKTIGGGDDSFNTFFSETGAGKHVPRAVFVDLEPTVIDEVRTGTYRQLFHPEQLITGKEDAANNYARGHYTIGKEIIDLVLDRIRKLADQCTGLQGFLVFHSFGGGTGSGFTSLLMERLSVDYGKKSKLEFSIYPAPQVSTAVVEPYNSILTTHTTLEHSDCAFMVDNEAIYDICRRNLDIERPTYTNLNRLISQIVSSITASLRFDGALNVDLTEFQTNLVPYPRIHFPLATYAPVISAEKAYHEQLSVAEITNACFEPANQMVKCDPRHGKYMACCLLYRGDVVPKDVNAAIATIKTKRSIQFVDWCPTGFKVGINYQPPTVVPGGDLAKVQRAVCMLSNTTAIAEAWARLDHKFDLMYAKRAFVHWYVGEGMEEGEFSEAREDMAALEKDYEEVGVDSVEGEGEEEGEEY
T1 sequence (Q9BVA1 whole entry partner): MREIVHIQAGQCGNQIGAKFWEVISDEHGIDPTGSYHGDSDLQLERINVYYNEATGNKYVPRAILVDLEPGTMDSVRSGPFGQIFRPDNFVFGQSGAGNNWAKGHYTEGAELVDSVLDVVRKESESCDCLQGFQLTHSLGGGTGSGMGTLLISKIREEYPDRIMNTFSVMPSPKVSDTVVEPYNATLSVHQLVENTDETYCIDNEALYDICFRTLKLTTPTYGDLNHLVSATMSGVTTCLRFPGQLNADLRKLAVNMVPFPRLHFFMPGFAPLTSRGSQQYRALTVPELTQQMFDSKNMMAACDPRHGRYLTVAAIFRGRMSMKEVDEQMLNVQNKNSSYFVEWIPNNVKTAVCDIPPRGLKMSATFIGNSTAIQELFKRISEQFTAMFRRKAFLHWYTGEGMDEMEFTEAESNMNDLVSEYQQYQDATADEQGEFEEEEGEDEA

Turning to `CCS(=O)(=O)Nc1ccc(C(=O)Nc2ccc(-c3ccnnc3)c(N3CC(F)(F)C3)c2)c(N2CCC3(CC2)CC3)c1` [Example 19, N-(3-(3,3-difluoroazetidin-1-y 1)-4-(pyridazin-4-yl)phenyl)-4-(ethylsulfonamido)-2-(6-azaspiro[2.5]octan-6-yl)benzamide], the IC50 stood at 6.3 nM in the assay on OVCAR-3 cells, 98.6 nM on recombinant human KIF18A and 0.44 nM with HT-29 cells.

On to `CCS(=O)(=O)Nc1ccc(C(=O)Nc2ccc(-n3cncn3)c(N3CCC(F)(F)CC3)c2)c(N2CCC3(CC2)CC3)c1` [Example 28, N-(3-(4,4-difluoropiperidin-1-yl)-4-(1H-1,2,4-triazol-1-yl)phenyl)-4-(ethylsulfonamido)-2-(6-azaspiro[2.5]octan-6-yl)benz amide], for which the IC50 was 12.4 nM with OVCAR-3 cells, 59.1 nM at recombinant human KIF18A and 8.4 nM in the assay on HT-29 cells.

Turning to `O=C(Nc1ccc(-c2ncccn2)c(N2CCC(F)(F)CC2)c1)c1ccc(NS(=O)(=O)C2CC2)cc1N1CCC2(CC1)CC2` [Example 17, 4-(cyclopropanesulfonamido)-N-(3-(4,4-difluoropiperidin-1-yl)-4-(pyrimidin-2-yl)phenyl)-2-(6-azaspiro[2.5]octan-6-yl)b enzamide], the IC50 was 3.2 nM in the assay on OVCAR-3 cells, 121 nM on recombinant human KIF18A and 3.3 nM with HT-29 cells.

Regarding `CCS(=O)(=O)Nc1ccc(C(=O)Nc2ccc(-c3nnc[nH]3)c(N3CCC(F)(F)CC3)c2)c(N2CCC3(CC2)CC3)c1` [Example 37, N-(3-(4,4-difluoropiperidin-1-yl)-4-(4H-1,2,4-triazol-3-yl)phenyl)-4-(ethylsulfonamido)-2-(6-azaspiro[2.5]octan-6-yl)benz amide], the IC50 with OVCAR-3 cells worked out at 3.6 nM; on recombinant human KIF18A, 39.8 nM; in the assay on HT-29 cells, 3.8 nM.

Take `CCS(=O)(=O)Nc1ccc(C(=O)Nc2ccc(-c3ncccn3)c(N3CCC(F)(F)CC3)c2)c(N2CCC3(CC2)CC3)c1` [Example 14, N-(3-(4,4-difluoropiperidin-1-yl)-4-(pyrimidin-2-yl)phenyl)-4-(ethylsulfonamido)-2-(6-azaspiro[2.5]octan-6-yl)benzamide]: the IC50 with OVCAR-3 cells was 5.9 nM; at recombinant human KIF18A, 120 nM; in the assay on HT-29 cells, 10.1 nM.

`O=C(Nc1ccc(-c2ccnnc2)c(N2CCC(F)(F)CC2)c1)c1ccc(NS(=O)(=O)C2CC2)cc1N1CCC2(CC1)CC2` [Example 16, 4-(cyclopropanesulfonamido)-N-(3-(4,4-difluoropiperidin-1-yl)-4-(pyridazin-4-yl)phenyl)-2-(6-azaspiro[2.5]octan-6-yl)b enzamide]: the IC50 was determined as 6.2 nM in the assay on OVCAR-3 cells, 147 nM on recombinant human KIF18A and 4.6 nM in the assay with HT-29 cells.

Turning to `CCS(=O)(=O)Nc1ccc(C(=O)Nc2ccc(-n3cnnn3)c(N3CCC(F)(F)CC3)c2)c(N2CCC3(CC2)CC3)c1` [Example 29, N-(3-(4,4-difluoropiperidin-1-yl)-4-(1H-tetrazol-1-yl)phenyl)-4-(ethylsulfonamido)-2-(6-azaspiro[2.5]octan-6-yl)benzamide], the IC50 in the assay on OVCAR-3 cells amounted to 15.9 nM; at recombinant human KIF18A, 79.5 nM; with HT-29 cells, 18.4 nM.

`CCS(=O)(=O)Nc1ccc(C(=O)Nc2ccc(-c3ncccn3)c(N3CC(F)(F)C3)c2)c(N2CCC3(CC2)CC3)c1` [Example 18, N-(3-(3,3-difluoroazetidin-1-y 1)-4-(pyrimidin-2-yl)phenyl)-4-(ethylsulfonamido)-2-(6-azaspiro[2.5]octan-6-yl)benzamide]: the IC50 in the assay with OVCAR-3 cells was 6.5 nM; at recombinant human KIF18A, 149 nM; in the assay on HT-29 cells, 0.64 nM.

Regarding `CCS(=O)(=O)Nc1ccc(C(=O)Nc2ccc(-c3cccnn3)c(N3CCC(F)(F)CC3)c2)c(N2CCC3(CC2)CC3)c1` [Example 12, N-(3-(4,4-difluoropiperidin-1-yl)-4-(pyridazin-3-yl)phenyl)-4-(ethylsulfonamido)-2-(6-azaspiro[2.5]octan-6-yl)benzamide], the IC50 in the assay with OVCAR-3 cells worked out at 2.5 nM; at recombinant human KIF18A, 62.4 nM; in the assay with HT-29 cells it was 3.9 nM.

In the case of `CCS(=O)(=O)Nc1ccc(C(=O)Nc2ccc(-c3ncn(C)n3)c(OC3CC(F)(F)C3)c2)c(N2CCC3(CC2)CC3)c1` [Example 45, N-(3-(3,3-difluorocyclobutoxy)-4-(1-methyl-1H-1,2,4-triazol-3-yl)phenyl)-4-(ethylsulfonamido)-2-(6-azaspiro[2.5]octan-6-yl)benzamide], the concentration for half-maximal inhibition (IC50) with OVCAR-3 cells amounted to 2.5 nM; on recombinant human KIF18A it was 103 nM; with HT-29 cells, 6.2 nM.

Turning to `O=C(Nc1ccc(-c2cccnn2)c(N2CCC(F)(F)CC2)c1)c1ccc(NS(=O)(=O)C2CC2)cc1N1CCC2(CC1)CC2` [Example 15, 4-(cyclopropanesulfonamido)-N-(3-(4,4-difluoropiperidin-1-yl)-4-(pyridazin-3-yl)phenyl)-2-(6-azaspiro[2.5]octan-6-yl)b enzamide], the IC50 in the assay on OVCAR-3 cells was 3.7 nM; on recombinant human KIF18A it was 69.4 nM; with HT-29 cells it was 4.7 nM.

As for `CCS(=O)(=O)Nc1ccc(C(=O)Nc2ccc(-n3ccnn3)c(C3CCC(F)(F)CC3)c2)c(N2CCC3(CC2)CC3)c1` [Example 31, N-(3-(4,4-difluorocyclohexyl)-4-(1H-1,2,3-triazol-1-yl)pheny 1)-4-(ethylsulfonamido)-2-(6-azaspiro[2.5]octan-6-yl)benzamide], the IC50 in the assay on OVCAR-3 cells was determined as 15.9 nM; at recombinant human KIF18A, 134 nM; in the assay with HT-29 cells it was 8.3 nM.

As to `CCS(=O)(=O)Nc1ccc(C(=O)Nc2ccc(-c3nnco3)c(N3CC(F)(F)C3)c2)c(N2CCC3(CC2)CC3)c1` [Example 49, N-(3-(3,3-difluoroazetidin-1-y 1)-4-(1,3,4-oxadiazol-2-yl)phenyl)-4-(ethylsulfonamido)-2-(6-azaspiro[2.5]octan-6-yl)benzamide], the IC50 stood at 12.6 nM with OVCAR-3 cells, 70.4 nM at recombinant human KIF18A and 9.6 nM in the assay with HT-29 cells.

In the case of `CCS(=O)(=O)Nc1ccc(C(=O)Nc2ccc(-n3ccnc3)c(N3CCC(F)(F)CC3)c2)c(N2CCC3(CC2)CC3)c1` [Example 20, N-(3-(4,4-difluoropiperidin-1-yl)-4-(1H-imidazol-1-yl)pheny 1)-4-(ethylsulfonamido)-2-(6-azaspiro[2.5]octan-6-yl)benzamide], the IC50 in the assay on OVCAR-3 cells was 8.5 nM; on recombinant human KIF18A it was 50.8 nM; in the assay on HT-29 cells, 6 nM.

Usually IC50 stands for the concentration at which inhibition is half-maximal.

Values taken from patent EP4748837A1, “AROMATIC AMIDE DERIVATIVE, AND PREPARATION METHOD THEREFOR AND USE THEREOF” (Zhejiang Hisun Pharmaceutical Co., Ltd., priority 2023, dated 2025).
